Experimental data: US9346854B2, “Anti-inflammatory peptides and use thereof” (Yeda Research and Development Co. Ltd., priority 2012, dated 2016)
Entries after “also recorded” stand apart in the source; their conditions may differ. Where two headings read alike, the source gives them in different places. No end group written: not given here.

Experiments:
[1] = LPS binding assay with NBD-labeled peptides; settings: NBD-labeled peptide affinity to LPS
Experimental: NBD-labeled peptides (50 μl, 2 μM, PBS^−/− 2% DMSO) were added to different concentrations of LPS (50 μl PBS^−/−) in a opaque black 96 well plate. After 10 minutes of incubation at room temperature, the fluorescence was measured using an excitation of 467 nm and emission of 530 nm. The data were plotted and Kd and Bmax values obtained using NLLSQ analysis.

[2] = system: TLR4 activation by LPS; assay: TNFα secretion by RAW264.7 macrophages stimulated with LPS; type: cell-based, murine; settings: for inhibition of LPS activation of macrophages (TNFα secretion), in words: LPS 10 ng/ml, peptide 20 μM (FIGS. 1A, 2)
Experimental: (§1) All in vitro assays were performed on RAW264.7 murine macrophages (ATCC-TIB71). Cells were grown in DMEM supplemented with 10% FBS, L-glutamine, sodium pyruvate, non-essential amino acids and antibiotics (Biological Industries, Beit Haemek, Israel). Incubator was set on 37° C. with a humidified atmosphere containing 5% CO2.
(§2) 2×10^5 cells per well were cultured overnight in a 96-wells plate. The following day, the media were replaced by fresh DMEM, including all supplements. Peptides were dissolved in DMSO and added to the cells in different concentrations. Final concentration of DMSO was 1% for all groups. Cells were incubated with the peptide for 2 hours, then LPS (TLR4 activator) or LTA (TLR2 activator) was added to the cells at 10 ng/ml or 500 ng/ml, respectively. The cells were further incubated for 5 hrs at 37° C., after which samples of the media from each treatment were collected and stored at −20° C. TNFα concentration in each sample was evaluated using a mouse TNFα enzyme-linked immunosorbent assay kit (Biosource™ ELISA, Invitorgen), according to the manufacturer's protocol. All experiments were done in triplicates.

[3] = system: S. aureus 6538P; type: cell-based
Experimental: (§3) The antibacterial activity of the peptides was examined in sterile 96-well plates (Nunc F96 microtiter plates) in a final volume of 100 μl, as follows. Aliquots (50 μl) of a suspension containing bacteria at a concentration of 10^6 colony-forming units/ml in culture medium (LB medium) were added to 50 μl of peptide serially diluted in culture medium (100 μM-0.78 μM). Inhibition of growth was determined by eye after an incubation of 18-20 h at 37° C. Antibacterial activities were expressed as the minimal inhibitory concentration, the concentration at which 100% inhibition of growth was observed after 18-20 h of incubation. In these the effect of the peptides on E. coli (ATCC:25922) and S. aureus (ATCC:6538P) was tested.

[4] = system: E. coli 25922; type: cell-based
Experimental: as §3

[5] = system: RAW264.7 macrophages; type: cell-based, murine; settings: for IC50: 2 h; for LC50 (cytotoxicity): toxicity, XTT, 2 hours incubation (method: LC50), read-out: IC50 macrophages RAW264.7
Experimental: as §1
1×10^4 cells per well were grown overnight on a 96-well plate. The following day, the media were replaced with 90 μl fresh culture medium and 10 μl solution buffer containing different concentrations of the different peptides. Peptide concentrations ranged from 0.78-100 μM. The cells were then incubated for 2 hours before adding to each well 50 μl of 2,3-bis-2H-tetrazolium-5-carboxanilide inner salt (XTT) reaction solution (Biological Industries). Viability was determined as described previously (Makovitzki et al. Cancer Res 69, 3458-63, 2009; Papo et al. 2006). The LC50 (the concentration at which 50% of the cells die) for each peptide was obtained from the dose-dependent cell viability curves.

[6] = system: Balb/c mice; assay: Antigen (OVA) induced anaphylactic shock; type: in vivo; settings: for Survival of anaphylactic shock (%): i.v. 10-15 mg/kg, 30-45 minutes prior to soluble OVA challenge
Experimental: The inhibitory capacity of the Kn(AL)nKn peptides was tested in the most rigorous manner for inhibition of otherwise fatal anaphylaxis. In this model, Balb/c mice were immunized by an i.p. injection of 100 μg OVA in 5 mg Alum and 1.5 μg pertusis, a protocol that favors IgE-type of response. Three weeks later the immunized mice received an i.v. injection of soluble OVA (3.5-5 μg), resulting in a rapid and aggressive anaphylactic shock. In this specific model, the immunized mice die within 10-20 minutes after the systemic (i.v.) OVA injection.
To test the ability of the peptides of the invention to inhibit anaphylactic shock formation, an i.v. injection of the K2(AL)8K2 peptide at 10-15 mg/kg was administered, 30-45 minutes prior to the soluble OVA challenge. Strikingly, this single injection rescued 87% of the sensitized mice (Table 7). […] In several mice that were protected by the K2(AL)8K2 peptide, the protection lasted for at least 2 days. Peptide treated mice died of anaphylactic shock only after systemic injection of a very high dose of OVA. Still, the exact conditions for optimum protective activity need to be validated.

[7] = system: TLR2 activation by LTA; assay: TNFα secretion by RAW264.7 macrophages stimulated with LTA; type: cell-based, murine; settings: LTA 500 ng/ml; peptide 20 μM (FIG. 1A)
Experimental: as §1, §2

[8] = system: RBL-2H3 cells; assay: IgE and DNP-BSA mediated degranulation (β-hexoseaminidase release); type: cell-based, rat; settings: for Inhibition of Degranulation (%): peptide concentration 20 μM, derived from FIG. 9A
Experimental: In order to study the specific effect of the peptides of the invention on direct IgE mediated degranulation, the rat basophilic cell line (RBL-2H3) was used. This cell line expresses high levels of surface IgE receptor that binds IgE with high affinity (FcεRI). Upon adding an allergen (IgE antigen) there is a cross-linking of adjacent FcεRs that results in degranulation and release of histamine. Degranulation was measured as release of intracellular β-hexoseaminidase (Nunomura et al., Int Immunol 17, 685-94, 2005).
In this assay system, RBL cells were incubated with the DNP-specific murine monoclonal IgE SPE7 (Eshhar et al., J Immunol 124:775, 1980) for 2.5 hours. The cells were washed and centrifuged and then further incubated with the DNP-BSA antigen that crossed-link the FcεRI bound IgE. Next, extracellular hexoseaminidase levels were evaluated by their ability to hydrolyze the 4-nitrophenyl-N-acetyl-β-D-glucosaminide substrate which results in the accumulation of a colored product. The tested peptides (see Table 5) were added at different concentrations and stages of the assay and tested for their ability to inhibit this reaction.
In the first set of experiments, RBLs were incubated with different concentrations of the (AL)6AK2 peptide or irrelevant control peptide (alpha subunit peptide) in the presence of IgE. Following incubation, the cells were washed and DNP10-BSA with peptide was added to crosslink adjacent FcεRI (FIG. 6). Following incubation, the cells were washed and suspended in the degranulation medium for either 30 (FIG. 6A) or 60 min. (FIG. 6B).

[9] = system: RBL cells; type: cell-based, rat
[10] = system: C57BL mice; assay: In vivo toxicity in mice; settings: 100 mg/kg i.p.
Experimental: Toxicity was tested by intraperitoneal injection of K2(AL)8K2 (100 mg/kg in 400 μl saline) in female C57B1 mice (n=2). Mice were continuously observed for 1 hour immediately following injection and once per day for 7 days. To examine the effect of our peptides on acute septic shock driven by LPS hyperactivation of TLR4 we have used murine models as described before (Zheng et al. Int Immunopharmacol 10, 1209-19, 2010; Arima et al, 2005). Briefly, 12 weeks old C57 Black female mice were treated with 100 ng of LPS injected IP in a saline solution (200 μl, pH 6.5) containing 200 mg/ml of D-galactosamine (Calbiochem). Treated mice received one IP injection of 10 mg/kg peptide dissolved in saline (200 μl) following the LPS injection. In the second model heat-killed bacteria were used to induce a lethal septic shock. E. coli cells were grown to a mid log phase (OD=0.5) at 37° C., cooled on ice, and centrifuged at 3500 rpm for 10 minutes at 4° C. The cells were re-suspended in saline for a concentration of 2×10^9 cells in 200 μl and heated at 95° C. for 30 minutes. Each animal received an IP injection of 2×10^9 cells in 200 μl saline followed by injection of 10 mg/kg peptide dissolved in saline (200 μl). Animals were monitored for survival and for signs of sepsis for the next 14 days after LPS injection. Peptides used as the acetic acid salts for in vivo experiments. […]

[11] = 100% inhibition of growth after 18-20 h

Substance: KKALALALALALAKK-NH2 [K2(AL)5AK2, KKALALALALALAKK]
- Kd [1]: 2.7 µM
- inhibition of LPS activation of macrophages (TNFα secretion), in words [2]: lower activity
- inhibition (LPS neutralization) ([2]; peptide 20 μM): 50%
- MIC S. aureus 6538P ([3]; 6538P): >100 µM
- MIC E. coli 25922 [4]; 25922: >100 µM
- IC50 [5]: > 100 µM

Substance: KKALALALALALALALALALALAKK [K2(AL)10AK2]
- Survival of anaphylactic shock (%) [6]: 50%

Substance: KALALALALALALAK-NH2 [K(AL)6AK]
- MIC S. aureus 6538P ([3]; 6538P): >100 µM
- MIC E. coli 25922 [4]; 25922: >100 µM
- IC50 [5]: > 100 µM

Substance: ALALALALALALALK-NH2 [(AL)7K]
- MIC S. aureus 6538P [3, 11]: >100 µM
- MIC E. coli 25922 [4, 11]: >100 µM
- LC50 (cytotoxicity) [5]: > 100 µM

Substance: KALALALKALALKALALALK-NH2 [K(AL)3K(AL)2K(AL)3K]
- Kd [1]: 9.6 µM
- inhibition of LPS activation of macrophages (TNFα secretion), in words [2]: highly active
- MIC S. aureus 6538P ([3]; 6538P): 12.5 µM
- MIC E. coli 25922 [4]; 25922: 25 µM
- IC50 [5]: 25 µM

Substance: KKAVAVAVAVAVAVAVAVKK-NH2 [K2(AV)8K2]
- inhibition of LPS activation of macrophages (TNFα secretion), in words [2]: medium inhibition; also recorded: lower activity
- MIC S. aureus 6538P ([3]; 6538P): >100 µM
- MIC E. coli 25922 [4]; 25922: >100 µM
- inhibition of LTA activation of macrophages (TNFα secretion), in words [7]: good inhibition
- IC50 [5]: 90 µM

Substance: ALALALALALALALALALKK [4D-(AL)9K2]
- MIC S. aureus 6538P [3, 11]: >100 µM
- MIC E. coli 25922 [4, 11]: >100 µM
- LC50 (cytotoxicity) [5]: 50 µM

Substance: ALALALALALALALALALKK-NH2 [(AL)9K2]
- Kd [1]: 4.4 µM
- MIC S. aureus 6538P ([3]; 6538P): >100 µM
- MIC E. coli 25922 [4]; 25922: >100 µM
- Inhibition of Degranulation (%) [8]: 30%
- IC50 [5]: > 100 µM

Substance: LALALALALALALALALALK-NH2 [L(AL)9K]
- MIC S. aureus 6538P [3, 11]: >100 µM
- MIC E. coli 25922 [4, 11]: >100 µM
- inhibition of IgE/DNP-BSA degranulation, in words [8]: no inhibition
- Inhibition of Degranulation (%) [8]: 0%
- Survival of anaphylactic shock (%) [6]: 0%
- protection from anaphylactic shock, in words ([6]; mouse, in vivo): failed also to give any protection
- LC50 (cytotoxicity) [5]: > 100 µM

Substance: KKALALALALALALALALKK [4D-K2(AL)8K2]
- Kd [1]: 15.6 µM
- MIC S. aureus 6538P [3, 11]: 100 µM
- MIC E. coli 25922 [4, 11]: 100 µM
- LC50 (cytotoxicity) [5]: > 100 µM

Substance: ALALALALALALAKK-NH2 [(AL)6AK2, ALALALALALALAKK]
- MIC S. aureus 6538P ([3]; 6538P): >100 µM
- MIC E. coli 25922 [4]; 25922: >100 µM
- killing or growth inhibition of RBL cells [9]: did not kill or inhibited the growth
- IC50 [5]: > 100 µM

Substance: KKALALALKK-NH2 [K2(AL)3K2, KKALALALKK]
- Kd [1]: 10 to 15 µM
- inhibition of LPS activation of macrophages (TNFα secretion), in words [2]: inactive
- MIC S. aureus 6538P ([3]; 6538P): >100 µM
- MIC E. coli 25922 [4]; 25922: >100 µM
- IC50 [5]: > 100 µM

Substance: KKALALALALALALALALKK-NH2 [K2(AL)8K2]
- MIC S. aureus 6538P ([3]; 6538P): >100 µM
- MIC E. coli 25922 [4]; 25922: >100 µM
- adverse effects in vivo [10]: not adversely affected
- IC50 [5]: > 100 µM

Substance: KALALALALALALALALALK-NH2 [K(AL)9K]
- MIC S. aureus 6538P ([3]; 6538P): >100 µM
- MIC E. coli 25922 [4]; 25922: >100 µM
- IC50 [5]: > 100 µM
